Experiments:
[1] = test system: IN/WHO strain house flies; assay: topical application, percent kill after 24 hours, susceptible IN/WHO strain; assay type: in vivo, female); details: for percent kill after 24 hours, with GS 13005: GS 13005 0.10 + synergist 0.50 μg/fly; for percent kill after 24 hours, with Mobam: Mobam 0.20 + synergist 1 μg/fly; for percent kill after 24 hours, synergist alone: insecticide 0, synergist 1 μg/fly
Method: (§1) In Table IX, and in the tables following it, the doses of topically applied insecticides and of synergists unless otherwise noted are expressed as micrograms per fly (μg/fly).
(§2) The synergistic effect of O-(2-propynyl) oximes with mobam was determined from topical application tests on susceptible, female, IN/WHO strain house flies and from tests on resistant, female, Rutgers A strain house flies. The synergist and insecticide were dissolved in ACS Grade acetone in such quantities that a 1.0 μ liter volume applied to the thorax of 3-to-5 day old CO2 -anesthetized female adult house flies contained the desired dosage. After being treated, the flies were confined, 10 to a plaster petri dish, with 3-5 dishes/treament, and held for 24-hr. observation of mortality. Reconstituted skim milk on cotton dental wicks was provided during the holding period. The percent kills after 24 hours are shown in Table X for the IN/WHO strain and Table XI for the Rutgers A strain.
(§3) The synergistic effect of benzyl 2-propynyl ethers with mobam was determined from topical application tests on IN/WHO and Rutgers A strain houseflies, following the procedure of Example 5. The percent kills after 24 hours are shown in Table XIV for the IN/WHO strain and in Table XV for the Rutgers A strain.
The effects of varying the insecticide dose and the synergist-insecticide ratio are further illustrated, with synergist compounds II-D, II-E, II-F and Mobam insecticide, in Tables XVI, XVII and XVIII. […]
The effect on IN/WHO flies of synergist compound IV-C, identified in Table IV, with mobam was determined by the topical application procedure of Example 5. […]
(§4) The synergistic effect with GS 13005 of compounds I-A, I-B, I-D, I-E, I-F, I-G and I-I was determined from topical application tests to IN/WHO strain, Rutgers A strain and polyvalent CH strain houseflies using the procedures of Example 5. The percent kills of the IN/WHO strain flies after 24 hours are shown in Table XXVIII; of the Rutgers A strain, in Table XXIX; and of the polyvalent CH strain, in Table XXX. The doses of insecticide alone to the CH strain files caused 10-40% mortality.
The synergistic effect with Diazinon and GS 13005 of various of the benzyl 2-propynyl ethers identified in Tables II and IIa was determined by topical application tests on IN/WHO strain, and Rutgers A strain and polyvalent, resistant, CH strain houseflies using the procedures of Example 5. The percent kills after 24 hours of IN/WHO strain flies are shown in Table XXXI; of Rutgers A strain flies, in Table XXXII; and of CH strain flies, in Table XXXIII. The doses of insecticide alone to the CH strain flies caused 10-40% mortality. […]
(§5) The synergistic effect on IN/WHO strain flies and Rutgers A strain flies of compound IV-C with GS 13005 and with Diazinon was determined by the topical application procedure of Example 5. The percent kills of IN/WHO strain flies after 24 hours are shown in Tables XXXVI and XXXVII; the percent kills of Rutgers A strain flies are shown in Tables XXXVIII and XXXIX.

[2] = test system: Rutgers A strain house flies; assay: topical application, percent kill after 24 hours, resistant Rutgers A strain; assay type: in vivo, female); details: for percent kill after 24 hours, with GS 13005: GS 13005 1.0 + synergist 5.0 μg/fly
Method: as §1, §2, §3
The synergistic effect with Diazinon of compounds I-B, I-D, I-F, I-G, I-H and I-I, identified in Tables I and Ia, was determined from topical application tests on IN/WHO strain houseflies and on Rutgers A strain houseflies by the procedure of Example 5. The percent kills after 24 hours are shown in Table XXV for the IN/WHO strain and Table XXVI for the Rutgers A strain.
as §4
The synergistic effect with Diazinon and GS 13005 of various of the benzyl 2-propynyl ethers identified in Tables II and IIa was determined by topical application tests on IN/WHO strain, and Rutgers A strain and polyvalent, resistant, CH strain houseflies using the procedures of Example 5. The percent kills after 24 hours of IN/WHO strain flies are shown in Table XXXI; of Rutgers A strain flies, in Table XXXII; and of CH strain flies, in Table XXXIII. The doses of insecticide alone to the CH strain flies caused 10-40% mortality.
as §5

male mice = assay: extension of sleeping time of depressant drugs by synergists; assay type: in vivo, male mice (Swiss albino white); details: for Mean Sleeping Time, Noludar / Relative Sleeping Time, Noludar: Noludar 110 mg/kg; for Relative Sleeping Time, Noludar / Relative Sleeping Time, Secobarbital: treated/control; for Mean Sleeping Time, Secobarbital / Relative Sleeping Time, Secobarbital: Secobarbital 37 mg/kg
Method: The selectivity of the synergist compounds of this invention is illustrated by the results of sleeping-time extension tests and of acute toxicity tests on Swiss albino white male mice.
The effect of various synergist compounds on sleeping time of sodium secobarbital [Secobarbital] and of 3,3-diethyl-5-methyl-2,4-dioxypiperidine [Noludar] was determined by administering the drug, with and without synergist, to approximately 38-day old male mice weighing from 25 to 30 grams. Synergists were administered in each of two doses, 74.0 mg/kg (dilution being 2.0 mg/0.1 ml corn oil), and 110.0 mg/kg (dilution 3.0 mg/0.1 ml oil). Secobarbital was administered at a dose of 37.0 mg/kg (dilution 1.0 mg/0.1 ml water). Noludar was administered at a dose of 110.0 mg/kg (dilution 3.0 mg/0.1 ml water). The synergist was administered one hour prior to administration of the Secobarbital or Noludar. Secobarbital and Noludar sleeping times were obtained for both the control (drug only) and the treated (synergist plus drug) mice by noting the time lapse between the administration of the drug and the recovery of the righting reflex, i.e. when the animal regains conciousness and can walk up an inclined wooden tray with coordination. The relative sleeping time (R.S.) was noted. The R.S. is the extended sleeping time in the treated mice (synergist plus drug) divided by the sleeping time in the control mice (drug only). The mean sleeping time for the treated mice and the R.S. are shown on Table XXXXIV for various synergist compounds.

[3] = test system: Swiss albino, white male mice; assay: acute toxicity and synergism of acute toxicity in mice; assay type: in vivo; details: for number of mice dead, with Dimetilan: 48 hours
Method: To determine the acute toxicity of dimetilan alone, eight dosage levels of Dimetilan, ranging from 4 to 32 mg per kg were applied to eight, Swiss, albino, white, male mice per dosage level. The mice weighed approximately 23 to 27 grams and were five to six weeks old. The Dimetilan was administered intraperitoneally in 0.1 ml of corn oil one hour after the administration of the same dose of corn oil alone.
To determine the acute toxicity of the synergist alone, various synergists were administered intraperitoneally at a dose of 1000 mg/kg to each of a group of eight mice. The number of animals dead at the end of 72 hours is reported in the left hand column of Table XXXXVI.
The synergism of the acute toxicity of Dimetilan by various synergists was determined by tests on Swiss albino, white male mice aged five to six weeks and weighing 23 to 27 grams. The synergists and insecticides were dissolved in corn oil and the drugs were dissolved in distilled water. All compounds were administered intraperitoneally by injection in the lower quadrent of the abdomen. The synergist was administered in 0.1 ml of corn oil one hour prior to administration of the insecticide. Eight mice were treated, per dosage, with each synergist. The mice were watched for a minimum of 6 hours while held in a glass jar with bedding individually after intraperitoneal injection of the test solutions. Lethality was noted, the animals were weighed and transferred in cages, and food and water were supplied. Control mice were given 0.1 ml of corn oil at the time of administration of the synergist to the test mice and 0.1 ml corn oil plus Dimetilan at the time of administration of the insecticide to the test mice.
By the same procedure, the synergism of acute toxicity of GS 13005, Secobarbital and 6-dimethylamino-4,4-diphenyl-3-heptanone [Methadone] was determined.

[4] = synergist 110 mg/kg one hour prior
[5] = synergist 74 mg/kg one hour prior
[6] = Dimetilan 8 + synergist 80 mg/kg i.p., eight mice
[7] = Dimetilan 8 + synergist 240 mg/kg i.p., eight mice

## C#CCOCc1cccc([N+](=O)[O-])c1Cl [II-L]
[1]; GS 13005 0, synergist 1 μg/fly
  percent kill after 24 hours, synergist alone (GS 13005 part of Table XXXI): 3%
[1]
  percent kill after 24 hours, with GS 13005: 97%
  percent kill after 24 hours, with Mobam: 89%
  percent kill after 24 hours, synergist alone: 3%
[2]
  percent kill after 24 hours, with GS 13005: 83%
[2]; Mobam 0.40 + synergist 2.0 μg/fly
  percent kill after 24 hours, with Mobam: 52%
[2]; insecticide 0, synergist 5.0 μg/fly
  percent kill after 24 hours, synergist alone: 0%
Male mice; [4]
  Mean Sleeping Time, Noludar: 56 min
  Mean Sleeping Time, Secobarbital: 42 min
Male mice; synergist 110 mg/kg
  Relative Sleeping Time, Noludar: 1.8
  Relative Sleeping Time, Secobarbital: 1.8
Male mice; [5]
  Mean Sleeping Time, Secobarbital: 31 min
Male mice; synergist 74 mg/kg
  Relative Sleeping Time, Secobarbital: 1.0
[3]; [6]
  number of mice dead, with Dimetilan: 0
[3]; [7]
  number of mice dead, with Dimetilan: 5

## C#CCOCc1ccc([N+](=O)[O-])cc1Cl [II-N]
[1]
  percent kill after 24 hours, with GS 13005: 84%
  percent kill after 24 hours, with Mobam: 97%
[2]
  percent kill after 24 hours, with GS 13005: 60%
Male mice; [4]
  Mean Sleeping Time, Noludar: 58 min
  Mean Sleeping Time, Secobarbital: 39 min
Male mice; synergist 110 mg/kg
  Relative Sleeping Time, Noludar: 1.9
  Relative Sleeping Time, Secobarbital: 1.7
Male mice; [5]
  Mean Sleeping Time, Secobarbital: 20 min
Male mice; synergist 74 mg/kg
  Relative Sleeping Time, Secobarbital: 1.0
[3]; [6]
  number of mice dead, with Dimetilan: 0
[3]; [7]
  number of mice dead, with Dimetilan: 4

## C#CCON=Cc1ccc(Cl)cc1 [I-H]
[1]; Diazinon 0.02 + synergist 0.10 μg/fly
  percent kill after 24 hours, with Diazinon: 47%
[1]
  percent kill after 24 hours, synergist alone: 0%
[2]; Diazinon 1.5 + synergist 7.5 μg/fly
  percent kill after 24 hours, with Diazinon: 80%
[2]; Diazinon 3.0 + synergist 15 μg/fly
  percent kill after 24 hours, with Diazinon: 100%
[2]; insecticide 0, synergist 7.5 μg/fly
  percent kill after 24 hours, synergist alone: 0%
[2]; insecticide 0, synergist 15 μg/fly
  percent kill after 24 hours, synergist alone: 0%

## CCC(=O)C(CC(C)N(C)C)(c1ccccc1)c1ccccc1 (stereo not shown) [Methadone, 6-dimethylamino-4,4-diphenyl-3-heptanone, reference compound]
[3]; Methadone (32 mg/kg) in 0.1 ml corn oil
  number of mice dead, control (Methadone alone): 2

## COP(=O)(OC)O/C(C)=C/C(=O)N(C)C [Bidrin, 3-hydroxy-N,N-dimethyl-cis-crotonamide, dimethyl phosphate, reference compound]
[1]; Bidrin 0.063 μg/fly
  24 hour percent mortality, Bidrin alone: 0%
[1]; Bidrin 0.13 μg/fly
  24 hour percent mortality, Bidrin alone: 0%

## CNC(=O)Oc1ccccc1OC(C)C [Baygon, o-isopropoxyphenyl methylcarbamate, reference compound]
[1]; insecticide 0.125 μg/fly (Table XXI)
  24 hour percent mortality, insecticide alone: 0%

## CCOCCOCCOC(C)Oc1ccc2c(c1)OCO2 (stereo not shown) [Sesoxane, reference compound]
Male mice; synergist 110 mg/kg
  Relative Sleeping Time, Noludar: 3.1
  Relative Sleeping Time, Secobarbital: 8.3
Male mice; synergist 74 mg/kg
  Relative Sleeping Time, Secobarbital: 6.1
[3]; [6]
  number of mice dead, with Dimetilan: 8
[3]; [7]
  number of mice dead, with Dimetilan: 8
[3]; GS 13005 71 + synergist 213 mg/kg
  number of mice dead, with GS 13005: 0
[3]; Methadone 32 + synergist 215 mg/kg
  number of mice dead, with Methadone: 5
[3]; Secobarbital 90 + synergist 215 mg/kg
  number of mice dead, with Secobarbital: 6
[3]; synergist 1000 mg/kg i.p., Dimetilan 0, 72 hours, eight mice
  number of mice dead, synergist alone: 1

## COP(=O)(OC)OC(=CCl)c1cc(Cl)c(Cl)cc1Cl [Gardona, 2-chloro-1-(2,4,5-trichlorophenyl) vinyl dimethyl phosphate, reference compound]
[1]; Gardona 0.031 μg/fly
  24 hour percent mortality, Gardona alone: 13%
[1]; Gardona 0.063 μg/fly
  24 hour percent mortality, Gardona alone: 73%
[1]; Gardona 0.125 μg/fly
  24 hour percent mortality, Gardona alone: 100%

## C=CCC1(C(C)CCC)C(=O)NC(=O)NC1=O (stereo not shown) [Secobarbital, sodium secobarbital, reference compound]
[3]; Secobarbital (90 mg/kg) in 0.1 ml corn oil
  number of mice dead, control (Secobarbital alone): 0

Source: patent US3954793A, “1-(2-Propynyl)-1 H-indazole compounds” (priority 1973, dated 1976)
